In patent US6380254B2, “Method and composition for treating and preventing pathogenic effects caused by intracellular calcium overload” (Leigh Biotechnology, Inc., priority 1994, dated 2002):
Read-outs that look alike come from different tables or passages of the source.

Legend:
Type in all cases: cell-based, rat
Hepatocytes [1] = assay: Viability of post-anaerobic hepatocytes (fraction of cytosolic lactate dehydrogenase retained intracellularly); conditions: for viability at 5000 µM: Rattus norvegicus, Hepatocyte, 1.5 h, read-out: SURVIVING FRACTION; for MEAN SURVIVING FRACTION: glycine 20 mM, mixture less than 5 mM total, 90 min anaerobic then 90 minute aerobic incubation, untreated .384
Method: Both perfusates were introduced in situ at a rate of 20 ml/minute. The liver was dispersed by several passages through a glass pipette tip (4 mm aperture), subsequently filtered through two layers of a 250 micron Nylon mesh, and diluted in 50 ml of a chilled suspension medium of the BSS containing 1.3 mM CaCl2, 1.3 mM MgCl2, 20 mM glucose, and 5 mM pyruvate. The crude suspension was purified by differential centrifugation (100 g per 2 minutes).
The purified cell suspension, consisting primarily of liver parenchymal cells, was washed three times with the cold suspension medium. The final pellet was resuspended at a concentration of 20 mg cell protein (Biuret assay) per milliliter of suspension medium and incubated aerobically for one hour at 24° C. in a 50 ml polypropylene centrifuge tube mounted horizontally on the rocker tray of a shaking water bath (30 strokes per minute). At the end of this incubation period, hepatocyte viability was assessed by trypan blue exclusion.
Samples of the purified cell suspension were then transferred to two 50 ml polypropylene test tubes. One of these tubes was purged of oxygen by flushing the gas phase with argon and then permitting the cells to consume the residual oxygen in the medium. […] This anaerobic suspension was maintained in a 37° C.. water bath without agitation.
The other test tube was supplemented with oxygen by flushing the gas phase with pure oxygen. Diffusion of oxygen from the gas phase to this aerobic reference cell suspension was encouraged by orienting the tube in such a fashion as to maximize surface area and by gently agitating the suspension in the 37° C.. water bath. After 90 minutes, both suspension were removed from the water bath and the cells were washed two times with an ice cold suspension buffer and then resuspended in a warm, aerated suspension medium to a concentration of 10 mg cell protein.
A one milliliter sample of the anaerobic suspension was added to 4 ml of warm, aerated suspension medium containing either no additives (for the untreated cells), or a single amino carboxylic acid at a concentration of 5 mM. Cell viability was assessed in each test population at the end of a subsequent 90 minute aerobic incubation at 37° C. by measuring the fraction of cytosolic lactate dehydrogenase activity retained intracellularly.
Cell viability was assessed as the fraction of the cytosolic enzyme, lactate dehydrogenase, retained intracellularly following a 90 minute aerobic incubation. A minimum of four observations were made and recorded.
(§1) Hepatocytes were incubated anaerobically for 90 minutes, then washed and resuspended in fresh medium containing either no additives (untreated cells), trifluoperazine (25 μM), glycine (20 mM or 150 mg per 100 ml), or a mixture of amino carboxylic acids (total amino carboxylic acid concentration was less than 5 mM or 65 mg per 100 ml). Cell viability was assessed as the fraction of lactate dehydrogenase retained intracellularly following a 90 minute aerobic incubation. A minimum of four observations were made and recorded.
as §1, with “additives (for the untreated” for “additives (untreated”, “cells), neomycin sulfate (10 mM),” for “cells), trifluoperazine (25 μM),”, “or the” for “or a”

Hepatocytes [2] = assay: as above; conditions: glycine 20 mM, mixture less than 5 mM total, 90 min anaerobic then 90 minute aerobic incubation
glycogen phosphorylase a = assay: Intracellular calcium activity in post-anaerobic hepatocytes, expressed as glycogen phosphorylase a activity; conditions: mmols of PO^−3 liberated from glucose-1-phosphate per 1 million viable post-anaerobic cells; chlorpromazine 25 μM, glycine 20 mM, mixture less than 5 mM total; untreated 165.5
Method: Kinase is stimulated by increased intracellular calcium concentration via calmodulin. […] Thera., Vol. 238, pp. 186-191, 1986. […] Cell viability was assessed as the fraction of lactate dehydrogenase retained intracellularly following a 90 minute aerobic incubation. Intracellular calcium activity was assessed in these post-anaerobic cells by the method described in Long and Moore, supra, and expressed in terms of glycogen phosphorylase a activity. […] A minimum of four observations were made and recorded.

[3] = single amino carboxylic acid at 5 mM, 90 min anaerobic, then 90 minute aerobic incubation at 37° C., untreated 0.25
[4] = Table 4, neomycin sulfate 10 mM
[5] = Table 2, chlorpromazine 25 μM, mean with standard deviation, untreated .342
[6] = Table 5, alpha tocopherol succinate 100 mg per 100 ml, untreated .352
[7] = Table 6, desferrioxamine 25 μM, untreated .363

In the case of NC(=O)CC[C@H](N)C(=O)O [Glutamine, glutamine], the viability at 5000 µM (Hepatocytes [1]; [3]) is reported as 52%.

With N=C(N)NCCC[C@H](N)C(=O)O [Arginine, arginine] the viability at 5000 µM (Hepatocytes [1]) was 51%.

O=C(O)[C@@H]1CCCN1 [Proline, proline] was tested, and the viability at 5000 µM (Hepatocytes [1]; [3]) was 49%.

For CC(C)C[C@H](N)C(=O)O [Leucine, leucine, reference compound], the viability at 5000 µM (Hepatocytes [1]; [3]) was 32%.

For NCC(=O)O [Glycine, glycine], the viability at 5000 µM (Hepatocytes [1]; [3]) was 53%, the “MEAN SURVIVING FRACTION” value (Hepatocytes [1]; Table 3, trifluoperazine 25 μM) was “.739 ± .014” and the “MEAN SURVIVING FRACTION” value (Hepatocytes [1]; [4]) was “.694 ± .033”. The “MEAN SURVIVING FRACTION” value (Hepatocytes [2]; [5]) was “.698 ± .065”, the “MEAN SURVIVING FRACTION” value (Hepatocytes [2]; [6]) was “.749 ± .020” and the “MEAN SURVIVING FRACTION” value (Hepatocytes [2]; [7]) was “.696 ± .038”. For the same compound, the “GLYCOGEN PHOSPHORYLASE A ACTIVITY” value (glycogen phosphorylase a) was 124.8 ± 22.9 mmols.

For CC(=O)N(O)CCCCCNC(=O)CCC(=O)N(O)CCCCCNC(=O)CCC(=O)N(O)CCCCCN [Desferrioxamine, desferrioxamine, reference compound], the “MEAN SURVIVING FRACTION” value (Hepatocytes [2]; [7]) was “.393 ± .029”.

In the case of CN1CCN(CCCN2c3ccccc3Sc3ccc(C(F)(F)F)cc32)CC1 [Trifluoperazine, trifluoperazine, reference compound], the “MEAN SURVIVING FRACTION” value (Hepatocytes [1]; Table 3, trifluoperazine 25 μM) is reported as “.550 ± .061”.

N[C@@H](Cc1c[nH]cn1)C(=O)O [Histidine, histidine] gave a viability at 5000 µM (Hepatocytes [1]; [3]) of 50%.

N[C@@H](CCC(=O)O)C(=O)O [Glutamic acid, glutamic acid] was tested, and the viability at 5000 µM (Hepatocytes [1]) was 52%.

C[C@H](N)C(=O)O [Alanine, alanine] was tested, and the viability at 5000 µM (Hepatocytes [1]; [3]) was 51%.

Cc1c(C)c2c(c(C)c1O)CC[C@@](C)(CCC[C@H](C)CCC[C@H](C)CCCC(C)C)O2 [alpha-tocopherol, reference compound] was tested, and the “MEAN SURVIVING FRACTION” value (Hepatocytes [2]; [6]) was “.421 ± .087”.

With CN(C)CCCN1c2ccccc2Sc2ccc(Cl)cc21 [Chlorpromazine, chlorpromazine, reference compound] the “MEAN SURVIVING FRACTION” value (Hepatocytes [2]; [5]) was “.567 ± .055”.

Compound N[C@@H](CO)C(=O)O [Serine, serine] has a viability at 5000 µM (Hepatocytes [1]; [3]) of 40%.

With CC(C)[C@H](N)C(=O)O [Valine, valine, reference compound] the viability at 5000 µM (Hepatocytes [1]; [3]) was 28%.

neomycin sulfate [reference compound] was tested, and the “MEAN SURVIVING FRACTION” value (Hepatocytes [1]; [4]) was “.566 ± .043”.

N[C@@H](Cc1ccc(O)cc1)C(=O)O [Tyrosine, tyrosine, reference compound] gave a viability at 5000 µM (Hepatocytes [1]; [3]) of 31%.

Work on NC(=O)C[C@H](N)C(=O)O [Asparagine, asparagine] yielded a viability at 5000 µM (Hepatocytes [1]; [3]) of 54%.

CC[C@H](C)[C@H](N)C(=O)O [Isoleucine, isoleucine, reference compound] was tested, and the viability at 5000 µM (Hepatocytes [1]; [3]) was 29%.
